Experimental data published in US10508104B2, “6-hydroxy-5-(phenyl/heteroarylsulfonyl)pyrimidin-4(1H)-one as APJ agonists” (Bristol-Myers Squibb Company, priority 2016, dated 2019).
Read-outs that look alike come from different tables or passages of the source.

Target: human APJ receptor (Homo sapiens (Human), UniProt P35414)
Experiment: Intracellular cAMP accumulation assay (APJ hcAMP, HTRF)
Assay type: cell-based
Details: read-out: Human APJ cAMP EC50 Potency range
Summary of the method: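 HEK293 cells stably expressing human APJ, 5,000 per well, incubated 30 min at rt with compound, […] and 2 μM forskolin. cAMP measured by HTRF against a cAMP standard curve as inhibition of forskolin-driven production. EC50 from variable-slope sigmoidal fit.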

[1] = human APJ, intracellular cAMP accumulation
[2] = HEK293 cells stably expressing human APJ receptor, inhibition of forskolin-mediated cAMP production

human APJ receptor, sequence (P35414 whole entry): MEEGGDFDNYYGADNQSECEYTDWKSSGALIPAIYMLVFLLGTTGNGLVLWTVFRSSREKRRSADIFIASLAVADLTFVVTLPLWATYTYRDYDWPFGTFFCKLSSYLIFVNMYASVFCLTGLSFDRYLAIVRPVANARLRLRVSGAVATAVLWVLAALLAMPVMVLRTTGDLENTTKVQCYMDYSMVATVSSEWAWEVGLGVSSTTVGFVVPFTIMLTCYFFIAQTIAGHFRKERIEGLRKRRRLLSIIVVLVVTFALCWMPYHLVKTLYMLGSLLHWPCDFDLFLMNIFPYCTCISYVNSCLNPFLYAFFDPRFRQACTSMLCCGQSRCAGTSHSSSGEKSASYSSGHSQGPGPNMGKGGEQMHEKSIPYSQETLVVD

SMILES | EC50 [1] [nM] | EC50 [2] [nM]
CCCCc1nc(=O)c(S(=O)(=O)c2ccc(-c3ccnc(NC(=O)C4CC4)c3)cc2)c(O)n1-c1c(CC)cccc1CC [Example 65, N-[4-(4-{[2-butyl-1-(2,6-diethylphenyl)-6-hydroxy-4-oxo-1,4-dihydropyrimidin-5-yl]sulfonyl}phenyl)pyri-din-2-yl]cyclopropane-carboxamide] | 0.01 to 10 | –
CCCCc1nc(=O)c(S(=O)(=O)c2ccc(-n3cc(Cl)ccc3=O)cc2)c(O)n1-c1c(OC)cccc1OC [Example 71, 2-Butyl-5-((4-(5-chloro-2-oxopyridin-1 (2H)-yl)phenyl)sulfonyl)-1-(2,6-dimethoxyphenyl)-6-hydroxypyrimidin-4(1H)-one] | – | 0.01 to 10
CCCCc1nc(=O)c(S(=O)(=O)c2ccc(-c3nccn3C)cc2)c(O)n1-c1c(OC)cccc1OC [Example 79, 2-Butyl-1-(2,6-dimethoxyphenyl)-6-hydroxy-5-((4-(1-methyl-1H-imidazol-2-yl)phenyl)sulfonyl)pyrimidin-4(1H)-one] | – | 0.01 to 10
CCCCc1nc(=O)c(S(=O)(=O)c2ccc(-c3cccs3)cc2)c(O)n1-c1c(OC)cccc1OC [Example 81, 2-butyl-1-(2,6-dimethoxyphenyl)-6-hydroxy-5-[4-(thiophen-2-yl)benzenesulfonyl]-1,4-dihydropyrimidin-4-one] | 0.01 to 10 | –
CCCCc1nc(=O)c(S(=O)(=O)c2ccc(-c3c(C)nnn3C)cc2)c(O)n1-c1c(OC)cccc1OC [Example 82, 2-butyl-1-(2,6-dimethoxyphenyl)-5-[4-(dimethyl-1H-1,2,3-triazol-5-yl)benzenesulfonyl]-6-hydroxy-1,4-dihydropyrimidin-4-one] | 0.01 to 10 | –
CCCCc1nc(=O)c(S(=O)(=O)c2ccc(-c3nc(C(=O)OCC)co3)cc2)c(O)n1-c1c(OC)cccc1OC [Example 83, ethyl 2-(4-{[2-butyl-1-(2,6-dimethoxyphenyl)-6-hydroxy-4-oxo-1,4-dihydropyrimidin-5-yl]sulfonyl}phenyl)-1,3-oxazole-4-carboxylate] | 0.01 to 10 | –
CCCCc1nc(=O)c(S(=O)(=O)c2ccc(-c3nc(C(=O)OC)c(C)s3)cc2)c(O)n1-c1c(OC)cccc1OC [Example 84, methyl 2-(4-{[2-butyl-1-(2,6-dimethoxyphenyl)-6-hydroxy-4-oxo-1,4-dihydropyrimidin-5-yl]sulfonyl}phenyl)-5-methyl-1,3-thiazole-4-carboxylate] | 0.01 to 10 | –
CCCCc1nc(=O)c(S(=O)(=O)c2ccc(C3CC3)cc2)c(O)n1-c1c(OC)cccc1OC [Example 85, 2-Butyl-5-((4-cyclopropylphenyl)sulfonyl)-1-(2,6-dimethoxyphenyl)-6-hydroxypyrimidin-4(1H)-one] | – | 0.01 to 10
COc1cccc(OC)c1-n1c(C2CCCC2)nc(=O)c(S(=O)(=O)c2ccc(C3CC3)cc2)c1O [Example 86, 2-cyclopentyl-5-(4-cyclopropylbenzene-sulfonyl)-1-(2,6-dimethoxyphenyl)-6-hydroxy-1,4-dihydropyrimidin-4-one] | 0.01 to 10 | –
CCCCc1nc(=O)c(S(=O)(=O)c2ccc(C3CC3)cc2)c(O)n1-c1c(CC)cccc1CC [Example 87, 2-butyl-5-(4-cyclopropylbenzene-sulfonyl)-1-(2,6-diethylphenyl)-6-hydroxy-1,4-dihydropyrimidin-4-one] | 0.01 to 10 | –
CCOCc1nc(=O)c(S(=O)(=O)c2ccc(C3CC3)cc2)c(O)n1-c1c(CC)cccc1CC [Example 88, 5-(4-cyclopropylbenzene-sulfonyl)-1-(2,6-diethylphenyl)-2-(ethoxymethyl)-6-hydroxy-1,4-dihydropyrimidin-4-one] | 0.01 to 10 | –
CCCCc1nc(=O)c(S(=O)(=O)c2ccc(C(=O)O)cc2)c(O)n1-c1c(OC)cccc1OC [Example 89, 4-((2-Butyl-1-(2,6-dimethoxyphenyl)-6-hydroxy-4-oxo-1,4-dihydropyrimidin-5-yl)sulfonyl)benzoic Acid] | – | 0.01 to 10
CCCCc1nc(=O)c(S(=O)(=O)c2ccc(C(=O)NCC(F)(F)F)cc2)c(O)n1-c1c(OC)cccc1OC [Example 90, 4-((2-Butyl-1-(2,6-dimethoxyphenyl)-6-hydroxy-4-oxo-1,4-dihydropyrimidin-5-yl)sulfonyl)-N-(2,2,2-trifluoroethyl)benzamide] | – | 0.01 to 10
CCCCc1nc(=O)c(S(=O)(=O)c2ccc(C(=O)NC3CC3)cc2)c(O)n1-c1c(OC)cccc1OC [Example 91, 4-{[2-butyl-1-(2,6-dimethoxyphenyl)-6-hydroxy-4-oxo-1,4-dihydropyrimidin-5-yl]suffonyl}-N-cyclopropylbenzamide] | 0.01 to 10 | –
CCCCc1nc(=O)c(S(=O)(=O)c2ccc(C(=O)NC)cc2)c(O)n1-c1c(OC)cccc1OC [Example 92, 4-{[2-butyl-1-(2,6-dimethoxyphenyl)-6-hydroxy-4-oxo-1,4-dihydropyrimidin-5-yl]sulfonyl}-N-methylbenzamide] | 0.01 to 10 | –
CCCCc1nc(=O)c(S(=O)(=O)c2ccc(C(=O)N3CC(F)(F)C3)cc2)c(O)n1-c1c(OC)cccc1OC [Example 93, 2-butyl-5-[4-(3,3-difluoroazetidine-1-carbonyl)benzenesulfo-nyl]-1-(2,6-dimethoxyphenyl)-6-hydroxy-1,4-dihydropyrimidin-4-one] | 0.01 to 10 | –

Results, then the compound that gave them:

EC50 [1] [nM] | EC50 [2] [nM] | SMILES
0.01 to 10 | – | COc1cccc(OC)c1-n1c(C2CCCC2)nc(=O)c(S(=O)(=O)c2ccc(-c3ccnc(NC(=O)C4CC4)c3)cc2)c1O [Example 64, N-[4-(4-{[2-cyclopentyl-1-(2,6-dimethoxyphenyl)-6-hydroxy-4-oxo-1,4-dihydropyrimidin-5-yl]sulfonyl}phenyl)pyri-din-2-yl]cyclopropane-carboxamide]
0.01 to 10 | – | CCCCc1nc(=O)c(S(=O)(=O)c2ccc(C)cc2)c(O)n1-c1c(CC)cccc1CC [Example 66, 2-butyl-1-(2,6-diethylphenyl)-6-hydroxy-5-(4-methylbenzenesulfonyl)-1,4-dihydropyrimidin-4-one]
0.01 to 10 | – | CCOCc1nc(=O)c(S(=O)(=O)c2ccc(C)cc2)c(O)n1-c1c(CC)cccc1CC [Example 67, 1-(2,6-diethylphenyl)-2-(ethoxymethyl)-6-hydroxy-5-(4-methylbenzenesulfonyl)-1,4-dihydropyrimidin-4-one]
0.01 to 10 | – | CCCCc1nc(=O)c(S(=O)(=O)c2ccc(-c3ccc(F)cc3)c(F)c2)c(O)n1-c1c(OC)cccc1OC [Example 68, 2-butyl-1-(2,6-dimethoxyphenyl)-5-[3-fluoro-4-(4-fluorophenyl)benzene-sulfonyl]-6-hydroxy-1,4-dihydropyrimidin-4-one]
0.01 to 10 | – | CCCCc1nc(=O)c(S(=O)(=O)c2ccc(-c3ccnc(F)c3C)c(F)c2)c(O)n1-c1c(OC)cccc1OC [Example 69, 2-butyl-1-(2,6-dimethoxyphenyl)-5-[3-fluoro-4-(2-fluoro-3-methylpyridin-4-yl)benzenesulfonyl]-6-hydroxy-1,4-dihydropyrimidin-4-one]
0.01 to 10 | – | CCCCc1nc(=O)c(S(=O)(=O)c2ccc(-c3ccc(F)nc3)c(F)c2)c(O)n1-c1c(OC)cccc1OC [Example 70, 2-butyl-1-(2,6-dimethoxyphenyl)-5-[3-fluoro-4-(6-fluoropyridin-3-yl)benzenesulfonyl]-6-hydroxy-1,4-dihydropyrimidin-4-one]
0.01 to 10 | – | CCCCc1nc(=O)c(S(=O)(=O)c2ccc(-n3ccccc3=O)cc2)c(O)n1-c1c(OC)cccc1OC [Example 72, 2-butyl-1-(2,6-dimethoxyphenyl)-6-hydroxy-5-[4-(2-oxo-1,2-dihydropyridin-1-yl)benzenesulfonyl]-1,4-dihydropyrimidin-4-one]
0.01 to 10 | – | COc1cccc(OC)c1-n1c(CCC(C)C)nc(=O)c(S(=O)(=O)c2ccc(-n3ccccc3=O)cc2)c1O [Example 73, 1-(2,6-dimethoxyphenyl)-6-hydroxy-2-(3-methylbutyl)-5-[4-(2-oxo-1,2-dihydropyridin-1-yl)benzenesulfonyl]-1,4-dihydropyrimidin-4-one]
0.01 to 10 | – | CCCCc1nc(=O)c(S(=O)(=O)c2ccc(-n3ccc(C)cc3=O)cc2)c(O)n1-c1c(OC)cccc1OC [Example 74, 2-butyl-1-(2,6-dimethoxyphenyl)-6-hydroxy-5-[4-(4-methyl-2-oxo-1,2-dihydropyridin-1-yl)benzenesulfonyl]-1,4-dihydropyrimidin-4-one]
0.01 to 10 | – | CCCCc1nc(=O)c(S(=O)(=O)c2ccc(-n3cc(F)ccc3=O)cc2)c(O)n1-c1c(OC)cccc1OC [Example 75, 2-butyl-1-(2,6-dimethoxyphenyl)-5-[4-(5-fluoro-2-oxo-1,2-dihydropyridin-1-yl)benzenesulfonyl]-6-hydroxy-1,4-dihydropyrimidin-4-one]
0.01 to 10 | – | CCCCc1nc(=O)c(S(=O)(=O)c2ccc(-n3cc(C)ccc3=O)cc2)c(O)n1-c1c(OC)cccc1OC [Example 76, 2-butyl-1-(2,6-dimethoxyphenyl)-6-hydroxy-5-[4-(5-methyl-2-oxo-1,2-dihydropyridin-1-yl)benzenesulfonyl]-1,4-dihydropyrimidin-4-one]
0.01 to 10 | – | CCCCc1nc(=O)c(S(=O)(=O)c2ccc(-n3cc(Cl)ccc3=O)cc2)c(O)n1-c1c(CC)cccc1CC [Example 77, 2-butyl-5-[4-(5-chloro-2-oxo-1,2-dihydropyridin-1-yl)benzenesulfonyl]-1-(2,6-diethylphenyl)-6-hydroxy-1,4-dihydropyrimidin-4-one]
0.01 to 10 | – | CCCCc1nc(=O)c(S(=O)(=O)c2ccc(-n3cc(C)ccc3=O)cc2)c(O)n1-c1c(CC)cccc1CC [Example 78, 2-butyl-1-(2,6-diethylphenyl)-6-hydroxy-5-[4-(5-methyl-2-oxo-1,2-dihydropyridin-1-yl)benzenesulfonyl]-1,4-dihydropyrimidin-4-one]
0.01 to 10 | – | CCCCc1nc(=O)c(S(=O)(=O)c2ccc(-c3ncn(C)n3)cc2)c(O)n1-c1c(OC)cccc1OC [Example 80, 2-butyl-1-(2,6-dimethoxyphenyl)-6-hydroxy-5-[4-(1-methyl-1H-1,2,4-triazol-3-yl)benzenesulfonyl]-1,4-dihydropyrimidin-4-one]
